The subject of the experiment is Fusarium crown rot (FCR) of wheat, Fusarium pseudograminearum G14LY24-2. The experiment can be described thus: Field effect of seed coating on controlling FCR of wheat (inoculated field disease nurseries). The experiment is classed as in vivo. To be noted: for Average disease rating: grading 0-5. As to the method: Wheat grains are soaked for 12 h, sterilized for 60 min, allowed to stand for two days, sterilized for 30-60 min, and cooled for later use. Fusarium pseudograminearum G14LY24-2 was selected on a PDA plate. After growing for three days, marginal hyphae were picked to grow on a fresh PDA plate. After three days, the hyphal pellets were plated into a wheat grain polyethylene bag with sterilized wheat grains. The hyphal pellets grew at room temperature for two weeks until the fungi grew all over wheat grains, and stored in a refrigerator at 4° C. after air-drying.
Disease nurseries were constructed in a 1:1 ratio of seed quantity to inoculum volume ratio. The inoculation was located 3-5 cm above the seed. The seeds to be sown and the inoculum were mixed first, and after mixing well, well-mixed sowing materials were sown by a planter.
Selected C. globosum strains were activated on a fresh PDA, and hyphal pellets were picked into 9 cm PDA Petri dishes. After 15 days, perithecia were ground in sterile water using a spreading rod, and ascospore suspension was controlled at about 100 mL, with a concentration of 1.0-2.0×10^7 ascospores/mL; in case of a low concentration, the suspension was centrifuged at 3,000 rpm for 5 min, dewatered, and resuspended. 75 mL of fungal suspension (approximately 1.3×10^7 ascospores/mL) was mixed with 25 mL of 4 wt % carboxymethyl cellulose salt solution into 100 mL of fungal suspension with 1% carboxymethyl cellulose salt (approximately 1.0×10^7 ascospores/mL). 100 mL of 1×10^7 ascospores/mL fungal suspension with 1% carboxymethyl cellulose salt was mixed well with 5 kg of wheat seeds. Chaetomium globosum strain 12XP1-2-3-coated seeds were rinsed and spread on a plate to count spores on the seed surface, which was 5.0-5.3×10^4 ascospores per seed. The wheat cultivar in 2018 was “Bainong 207”, the wheat cultivar in 2019 was “Aikang 58”, the control agent was 30 g/L difenoconazole, and the seeds were dressed in an agent-to-seed ratio of 1:333.
Field sampling method: At the seedling stage, the emergence rate was investigated, and the plant height, tap root length, fresh weight, dry weight, and colonization ability of C. globosum were measured; at the tillering stage, the morbidity was investigated, and the plant height, tap root length, fresh weight, dry weight, tiller number, and colonization ability of C. globosum were measured; the morbidity was investigated at the jointing stage; the white ear rate was investigated at the filling stage. The method was to investigate the number of white heads and total number of ears per 1 m2 plot and calculate the white ear rate of the plot. The diseased stem rate was investigated at the maturing stage; 20 stems were sampled at five points in each plot, a total of 100 stems for each treatment were brought back to the laboratory, and leaf sheaths were removed thoroughly to determine the disease rating.
The grading standard for adult stage was as follows: 0=no disease; 1=browning in the first node; 2=browning in the second node; 3=browning in the third node; 4=browning in the peduncle or white ears at the filling stage; and 5=diseased plant without ear bearing. The yield was determined during harvest.

The mark [1] stands for this setting: “Aikang 58” in Wenxian in 2019, wheat filling stage.
Where [2] appears, read: “Bainong 207” in Kaifeng in 2018, wheat filling stage.

In the case of `CC1COC(Cn2cncn2)(c2ccc(Oc3ccc(Cl)cc3)cc2Cl)O1` (stereo not drawn) [Difenoconazole, difenoconazole], under setting [1], the Disease index came out at 9.4, the “Diseased stem rate %” value stood at 26.0% and the Average disease rating stood at 0.5. Besides, under setting [2], the Disease index is on record as 12.9, the “Diseased stem rate %” value was 30.0% and the Average disease rating worked out at 0.6.

These data come from patent publication US11998016B2, “Use of Chaetomium globosum strain in controlling fusarium crown rot of wheat” (priority 2020, dated 2024).
